# Measurements as given in patent publication US12338203B2 (TAISHO PHARMACEUTICAL CO., LTD., priority 2019, dated 2025).
# Biological target: T1, human LPAR1 (Homo sapiens, UniProt Q92633)
# T1 construct: expressed in transfected cells
# Test: Test Example 1: antagonism against response of LPA-induced increase in intracellular Ca2+ concentration in RH7777 cells stably expressing human LPAR1
# Type: cell-based
# Details: not given
# Protocol: (1) Preparation of RH7777 cells stably expressing human LPAR1
# The human LPAR1 expression vector was transfected into RH7777 cells to acquire human LPAR1 expressing cells.
# (2) Test of antagonism against response of LPA-induced increase in intracellular Ca^2+ concentration
# Cells stably expressing human LPAR1 were used for a test of antagonism against response of LPA-induced increase in intracellular Ca^2+ concentration.
# The cells were seeded onto the Poly-D-Lysine 96 well black plate and incubated overnight. […] 50 μL of the Basal Buffer (1×HBSS, 20 mM HEPES, 2.5 mM Probenecid, 0.05% BSA, 0.25 mg/mL Amaranth, pH 7.4) containing the test compound was added thereto, followed by incubation at 37° C. for 30 minutes. In FDSS6000 (Hamamatsu Photonics K.K.), LPAs were added, and the change in intracellular Ca^2+ concentration was detected using the fluorescence value of a wavelength of 540 nm by an excitation wavelength of 480 nm as an indicator. […] The Rmax under […] without the test compound was used as the control value. The Rmax under Basal Buffer stimulation with no LPAs or test compounds was used as the basal value.
# The percentage (%) of increase in intracellular Ca^2+ concentration was calculated by dividing the value obtained by subtracting the basal value from Rmax in the presence of LPAs and each concentration of the test compound by the value obtained by subtracting the basal value from the control value. The concentration of each test compound was plotted on the X axis and the percentage (%) of increase in intracellular Ca^2+ concentration was plotted on the Y axis, and the IC50 value was calculated by nonlinear regression using XLfit.
# T1 sequence (Q92633 whole entry): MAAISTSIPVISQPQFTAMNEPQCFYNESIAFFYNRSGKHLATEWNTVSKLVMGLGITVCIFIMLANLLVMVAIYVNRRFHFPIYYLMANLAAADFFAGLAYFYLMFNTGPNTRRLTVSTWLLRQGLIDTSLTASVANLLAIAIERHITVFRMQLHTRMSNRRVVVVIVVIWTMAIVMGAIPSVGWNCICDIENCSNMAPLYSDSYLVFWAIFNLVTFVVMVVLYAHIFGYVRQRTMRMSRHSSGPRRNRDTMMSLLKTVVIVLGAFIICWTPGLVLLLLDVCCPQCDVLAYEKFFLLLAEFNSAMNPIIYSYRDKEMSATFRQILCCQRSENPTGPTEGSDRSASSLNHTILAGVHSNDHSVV
row,SMILES,IC50
1,CCCCC(NC(=O)N(CCCCc1ccccc1)Cc1cc(OC)c(C)c(OC)c1)C(=O)O (centres unmarked) [Example 1-3],1800 nM

# Same assay, conditions: RH7777 cells stably expressing human LPAR1; Fluo-4 fluorescence, FDSS6000; read-out: IC50 value (concentration producing 50% antagonism against response of LPA-induced increase in intracellular Ca2+ concentration) (converted)
row,IC50,SMILES
1,2.71 nM,CCOc1cc(C(C)N(CCCCc2ccccc2)C(=O)NC2(C(=O)O)CC(F)(F)C2)cc(OCC)c1CC (centres unmarked) [Example 1-47]
2,34.6 nM,CCOc1cc([C@@H](C)N(CCC(F)(F)Cc2ccccc2)C(=O)NC2(C(=O)O)CC2)cc(OCC)c1C(C)=O [Example 4-79]
3,40.6 nM,CCOc1cc(C(C)N(CCCCc2ccccc2)C(=O)NC2(CC(=O)O)Cc3ccccc3C2)cc(OCC)c1C (centres unmarked) [Example 1-147]
4,3.94 nM,CCOc1cc([C@@H](C)N(CCCCc2ccccc2)C(=O)NC2(C(=O)O)CC(OCC)C2)cc(OCC)c1C(C)=O (some centres unmarked) [Example 1-97]
5,1.21 nM,CCOc1cc([C@@H](C)N(CCCCc2ccccc2)C(=O)NC2CCC[C@H]2C(=O)O)cc(OCC)c1C(C)=O (some centres unmarked) [Example 1-133]
6,2.08 nM,CCOc1cc(C(C)N(CCO[C@@H](C)c2ccccc2)C(=O)NC2(C(=O)O)CC(OCC)C2)c(Cl)c(OCC)c1C(C)=O (some centres unmarked) [Example 5-223]
7,1270 nM,CCOC(=O)C1(NC(=O)N(CCO[C@@H](C)c2ccccc2)C(C)c2cc(OCC)c(C(C)=O)c(OCC)c2Cl)CC(F)(F)C1 (some centres unmarked) [Example 6-12]
8,5.3 nM,CCOc1cc([C@@H](C)N(CCCC(F)(F)c2ccccc2)C(=O)N[C@]2(C(=O)O)C[C@@H](OC)C2)cc(OCC)c1C(C)=O [Example 4-65]
9,1.44 nM,CCOc1cc(C(C)N(CCCCc2ccccc2)C(=O)NC2(C(=O)O)CC(OCC)C2)cc(OCC)c1C1CC1 (centres unmarked) [Example 1-101]
10,2.36 nM,COc1cc(C(C)N(CCOCc2ccccc2)C(=O)NC2(C(=O)O)CC(OC)C2)cc(OC)c1C1CC1 (centres unmarked) [Example 5-152]
11,10.3 nM,CCOc1c(C(C)(C)O)ccc([C@@H](C)N(CCCCc2ccccc2)C(=O)NC2(C(=O)O)CC(OCC)C2)c1C (some centres unmarked) [Example 1-104]
12,7.13 nM,CCOc1cc(C(C)N(CCCCc2ccccc2)C(=O)NC2(C(=O)O)CC(F)(F)C2)cc(OCC)c1C(O)CC (centres unmarked) [Example 1-33]
13,1.79 nM,CCOc1cc(C(C)N(CCO[C@@H](C)c2ccccc2)C(=O)NC2(C(=O)O)CC(OCC)C2)c(Cl)c(OCC)c1C1CC1 (some centres unmarked) [Example 5-222]
14,3.13 nM,CCOc1c(C(C)=O)ccc([C@@H](C)N(CCO[C@@H](C)c2ccccc2)C(=O)NC2(C(=O)O)CC(F)(F)C2)c1C [Example 4-119]
15,2.24 nM,"CCOc1cc([C@@H](C)N(CCCCc2ccccc2)C(=O)NC2(C(=O)O)COC2)cc(OCC)c1C(C)=O [Example 1-149, 3-({[(1R)-1-(4-Acetyl-3,5-Diethoxyphenyl)Ethyl](4-Phenylbutyl) Carbamoyl}Amino) Oxetane-3-Carboxylic Acid]"
16,15.2 nM,CCOc1cc([C@@H](C)N(CCO[C@@H](C)c2ccccc2)C(=O)N[C@H]2C[C@@](C)(C(=O)O)C2)cc(OCC)c1C(C)=O [Example 4-120]
17,1.25 nM,CCOc1cc([C@@H](C)N(CCOCc2ccccc2)C(=O)NC2(C(=O)O)CCC2)cc(OCC)c1C(C)=O [Example 4-101]
18,1.09 nM,CCOc1cc([C@@H](C)N(CCCCc2ccccc2)C(=O)NC2(C(=O)O)CC2)cc(OCC)c1C1CC1 [Example 1-18]
19,7.08 nM,CCOc1cc([C@@H](C)N(CCCCc2ccccc2)C(=O)NC2(c3nn[nH]n3)CC(F)(F)C2)c(Cl)c(OCC)c1C(C)O (some centres unmarked) [Example 10-10]
20,2.03 nM,CCOc1c(C(C)=O)ccc([C@@H](C)N(CCCCc2ccccc2)C(=O)NC2(C(=O)O)CC(OCC)C2)c1C (some centres unmarked) [Example 1-102]
21,14.5 nM,CCOc1cc([C@@H](C)N(CCCCc2ccccc2)C(=O)NC2CCC[C@@H]2C(=O)O)cc(OCC)c1C(C)=O (some centres unmarked) [Example 1-134]
22,1.65 nM,CCOc1cc(C(C)N(CCO[C@@H](C)c2ccccc2)C(=O)NC2(C(=O)O)CC(OCC)C2)c(C)c(OCC)c1C1CC1 (some centres unmarked) [Example 5-217]
23,2.26 nM,"CCOc1cc([C@@H](C)N(CCCc2ccccc2)C(=O)NC2(C(=O)O)CC(F)(F)C2)cc(OCC)c1C(C)=O [Example 4-35, 1-({[(1R)-1-(4-Acetyl-3,5-Diethoxyphenyl)Ethyl](3-Phenylpropyl) Carbamoyl}Amino)-3,3-Difluorocyclobutane-1-Carboxylic Acid]"
24,5.7 nM,CCOc1cc(C(C)N(CCO[C@@H](C)c2ccccc2)C(=O)N[C@]2(C(=O)O)C[C@H](OCC)C2)cc(OCC)c1C(C)O (some centres unmarked) [Example 4-133]
25,3.11 nM,COc1cc(C(C)N(CCOCc2ccccc2)C(=O)NC2(C(=O)O)CC(F)(F)C2)c(Cl)c(OC)c1C(C)=O (centres unmarked) [Example 5-143]

row,IC50,SMILES
1,1.46 nM,"CCOc1cc([C@@H](C)N(CCO[C@@H](C)c2ccccc2)C(=O)N[C@]2(C(=O)O)C[C@@H](OCC)C2)c(Cl)c(OCC)c1C(C)=O [Example 5-26, Trans-1-[([(1R)-1-(4-Acetyl-2-Chloro-3,5-Diethoxyphenyl)Ethyl]{2-[(1S)-1-Phenylethoxy]Ethyl}Carbamoyl)Amino]-3-Ethoxycyclobutane-1-Carboxylic Acid]"
2,3.48 nM,CCOc1cc(C(C)N(CCCCc2ccccc2)C(=O)NC2(C(=O)O)CC(F)(F)C2)cc(F)c1C(C)=O (centres unmarked) [Example 1-71]
3,7.59 nM,CCOc1cc([C@@H](C)N(CCC(F)(F)Cc2ccccc2)C(=O)N[C@]2(C(=O)O)C[C@@H](OC)C2)cc(OCC)c1C(C)=O [Example 4-89]
4,3.26 nM,COc1cc([C@@H](C)N(CCOCc2ccccc2)C(=O)NC2(C(=O)O)CC(F)(F)C2)cc(OC)c1C [Example 4-164]
5,5.12 nM,"CCOc1cc(OCC)nc(C(C)N(CCCCc2ccccc2)C(=O)NC2(C(=O)O)CC(F)(F)C2)c1 (centres unmarked) [Example 5-85, 1-({[1-(4,6-Diethoxypyridin-2-Yl)Ethyl](4-Phenylbutyl) Carbamoyl}Amino)-3,3-Difluorocyclobutane-1-Carboxylic Acid]"
6,512 nM,CCOc1cc([C@@H](C)N(CCCCc2ccccc2)C(=O)NC2(C(=O)O)CC(N3CCCC3)C2)cc(OCC)c1C (some centres unmarked) [Example 1-108]
7,43.2 nM,CCOc1cc(C(=O)NC)cc(C(C)N(CCCCc2ccccc2)C(=O)NC2(C(=O)O)CC(F)(F)C2)c1 (centres unmarked) [Example 5-25]
8,5.7 nM,CCOc1cc([C@@H](C)N(CCCc2ccccc2)C(=O)NC2(C(=O)O)CC(F)(F)C2)cc(OCC)c1C [Example 4-36]
9,4.29 nM,"CCOc1cc([C@@H](C)N(CCOCc2ccccc2)C(=O)NC2CCOCC2C(=O)O)c(Cl)c(OCC)c1C(C)O (single isomer, unassigned) [Example 5-70]"
10,2.75 nM,"CCOc1cc([C@@H](C)N(CCC(F)(F)Cc2ccccc2)C(=O)NC2(C(=O)O)CC(F)(F)C2)cc(OCC)c1C(C)O (single isomer, unassigned) [Example 4-86]"
11,2.95 nM,COc1cc(C(C)N(CCOC(C)c2ccccc2)C(=O)NC2(C(=O)O)CCC2)c(C)c(OC)c1C1CC1 (centres unmarked) [Example 5-139]
12,3.92 nM,CCOc1cc(C#N)cc(C(C)N(CCCCc2ccccc2)C(=O)NC2(C(=O)O)CC(F)(F)C2)c1 (centres unmarked) [Example 5-20]
13,3.12 nM,CCOc1cc(C(C)N(CCCCc2ccccc2)C(=O)NC2(C(=O)O)CC(C)(C)C2)cc(OCC)c1C(C)=O (centres unmarked) [Example 1-84]
14,4.22 nM,CCOc1cc(C(C)N(CCCCc2ccccc2)C(=O)NC2(C(=O)O)CC(F)(F)C2)cc(F)c1C(C)O (centres unmarked) [Example 1-72]
15,4.86 nM,CCOc1cc(C(C)N(CCOC(C)c2ccccc2)C(=O)NC2(c3nn[nH]n3)CC(OC)C2)cc(OCC)c1C(C)=O (centres unmarked) [Example 10-16]
16,4.57 nM,CCOc1c(C(C)=O)ccc([C@@H](C)N(CCCCc2ccccc2)C(=O)NC2(C(=O)O)CC(OCC)C2)c1C (some centres unmarked) [Example 1-103]
17,1.99 nM,CCOc1cc([C@@H](C)N(CCCCc2ccccc2)C(=O)NC2(C(=O)O)CC(OC)C2)cc(OCC)c1C (some centres unmarked) [Example 1-91]
18,2.23 nM,"CCOc1cc([C@@H](C)N(CCCCc2ccccc2)C(=O)NC2(C(=O)O)CC2)cc(OCC)c1C(C)=O [Example 1-16, 1-({[(1R)-1-(4-Acetyl-3,5-Diethoxyphenyl)Ethyl](4-Phenylbutyl) Carbamoyl}Amino)Cyclopropane-1-Carboxylic Acid]"
19,2.5 nM,CCOc1c(C2CC2)ccc([C@@H](C)N(CCOC(C)c2ccccc2)C(=O)NC2(C(=O)O)CC(F)(F)C2)c1C (some centres unmarked) [Example 4-167]
20,20 nM,"CCOc1cc(C(C)N(CCCCc2ccccc2)C(=O)NC2(P(=O)(O)O)CCCC2)cc(OCC)c1C (single isomer, unassigned) [Example 8-2]"
21,5.33 nM,CCOc1cc([C@@H](C)N(CCO[C@@H](C)c2ccccc2)C(=O)N[C@]2(C(=O)O)C[C@@H](OCC)C2)cc(OCC)c1C(C)O (some centres unmarked) [Example 4-135]
22,220 nM,CCOc1cc([C@@H](C)N(CCCc2ccccn2)C(=O)NC2(C(=O)O)CC(F)(F)C2)cc(OCC)c1C [Example 4-27]
23,24 nM,CCOc1c(C2CC2)ccc([C@@H](C)N(CCOC(C)c2ccccc2Cl)C(=O)NC2(C(=O)O)CCC2)c1C (some centres unmarked) [Example 4-178]
24,8.05 nM,CCOc1cc([C@@H](C)N(CCO[C@@H](C)c2ccccc2)C(=O)N[C@]2(C(=O)O)C[C@H](OCC)C2)c(Cl)c(OCC)c1C(C)O (some centres unmarked) [Example 5-63]
